Measured values as given in ChEMBL document CHEMBL1201862, “PubChem BioAssay data set” (2004).
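Cultured in 96-well plates, cells were exposed to test compound for 48 hours across five concentrations. The concentration for 50% growth inhibition is given as GI50.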 The source made the active and inactive calls. No stated cut-off is given here; in the data, active = GI50 up to about 1.1 µM and inactive = higher.

Assays:
Assay in all cases: growth of human tumour cells (NCI), 48 h
NCI/ADR-RES = tested on: NCI/ADR-RES
ACHN = tested on: ACHN
MCF7 = tested on: MCF7
K562 = tested on: K562
BT-549 = tested on: BT-549
OVCAR-8 = tested on: OVCAR-8
SF-539 = tested on: SF-539
Malme-3M = tested on: Malme-3M
SK-MEL-5 = tested on: SK-MEL-5
U-251 = tested on: U-251
HOP-92 = tested on: HOP-92
RXF 393 = tested on: RXF 393
COLO 205 = tested on: COLO 205
NCI-H460 = tested on: NCI-H460
EKVX = tested on: EKVX
HT-29 = tested on: HT-29
M14 = tested on: M14
SN12C = tested on: SN12C
MDA-MB-231 = tested on: MDA-MB-231
UO-31 = tested on: UO-31

Row | SMILES | GI50 (NCI/ADR-RES) | GI50 (ACHN) | GI50 (MCF7) | GI50 (K562) | GI50 (BT-549) | GI50 (OVCAR-8) | GI50 (SF-539) | GI50 (Malme-3M) | GI50 (SK-MEL-5) | GI50 (U-251) | GI50 (HOP-92) | GI50 (RXF 393) | GI50 (COLO 205) | GI50 (NCI-H460) | GI50 (EKVX) | GI50 (HT-29) | GI50 (M14) | GI50 (SN12C) | GI50 (MDA-MB-231) | GI50 (UO-31)
1 | O=C1Sc2cc3ccccc3cc2C(=O)Sc2ccc(Br)cc21 | 3.67 µM (inactive) | 1.66 µM (inactive) | 4.46 µM (inactive) | 4.17 µM (inactive) | 3.29 µM (inactive) | 2.51 µM (inactive) | 7.93 µM (inactive) | 11.9 µM (inactive) | 8.3 µM (inactive) | 2.06 µM (inactive) | 7.29 µM (inactive) | 2.48 µM (inactive) | 12.8 µM (inactive) | 7.26 µM (inactive) | 14.3 µM (inactive) | 3.41 µM (inactive) | 3.54 µM (inactive) | 3.93 µM (inactive) | 4.09 µM (inactive) | 
2 | Clc1nc(-c2ccccc2)nc(Cl)c1Cl | 22.5 µM (inactive) | 4.94 µM (inactive) | 8.15 µM (inactive) | 3.76 µM (inactive) | 20.6 µM (inactive) | 14.6 µM (inactive) | 18.4 µM (inactive) | 5.31 µM (inactive) | 13.4 µM (inactive) | 8.28 µM (inactive) | 13.9 µM (inactive) | 7.85 µM (inactive) | 10.3 µM (inactive) | 18.7 µM (inactive) | 16.2 µM (inactive) | 9.89 µM (inactive) | 7.14 µM (inactive) | 16.8 µM (inactive) | 13.7 µM (inactive) | 40.8 µM (inactive)
3 | CC(=O)Nc1ccc(-c2nc3ccccc3s2)cc1Cl | > 86.9 µM (inactive) | > 74 µM (inactive) | < 0.0399 µM (active) | > 100 µM (inactive) | > 75.9 µM (inactive) | 66.5 µM (inactive) | 16.3 µM (inactive) | > 100 µM (inactive) | > 100 µM (inactive) | > 84.1 µM (inactive) | 54.2 µM (inactive) | 26.5 µM (inactive) | > 100 µM (inactive) |  | 5.6 µM (inactive) | > 95.5 µM (inactive) | 68.7 µM (inactive) | > 100 µM (inactive) | 67.8 µM (inactive) | 27.7 µM (inactive)
4 | CC(C)(C)c1ccc(-c2nc3ccc(Cl)cc3c(=O)o2)cc1 | 22.7 µM (inactive) | 14.1 µM (inactive) | 25 µM (inactive) | 15.8 µM (inactive) | 21.2 µM (inactive) | 14.5 µM (inactive) | 14.7 µM (inactive) | 16.6 µM (inactive) | 12.8 µM (inactive) | 12.6 µM (inactive) | 11.9 µM (inactive) | 39.1 µM (inactive) | 17.7 µM (inactive) | 26.2 µM (inactive) | 20.6 µM (inactive) | 23.1 µM (inactive) | 17.9 µM (inactive) | 27.1 µM (inactive) | 0.324 µM (active) | 21.2 µM (inactive)
5 | CC12CC(=O)Nc3ccccc3N1C(c1ccccc1)=NO2 (centres undefined) | > 100 µM (inactive) | > 100 µM (inactive) | > 100 µM (inactive) | > 100 µM (inactive) | > 100 µM (inactive) | > 100 µM (inactive) | > 100 µM (inactive) | > 100 µM (inactive) | > 100 µM (inactive) | > 100 µM (inactive) | > 100 µM (inactive) | > 100 µM (inactive) | > 100 µM (inactive) | > 100 µM (inactive) | > 100 µM (inactive) | > 100 µM (inactive) | > 100 µM (inactive) | > 100 µM (inactive) | > 100 µM (inactive) | > 100 µM (inactive)
6 | c1ccc2oc(-c3ccc(-c4nc5ccccc5o4)c4c3CC4)nc2c1 | > 100 µM (inactive) | > 100 µM (inactive) | > 100 µM (inactive) | > 100 µM (inactive) | > 100 µM (inactive) | > 100 µM (inactive) | > 100 µM (inactive) | > 100 µM (inactive) | > 100 µM (inactive) | > 100 µM (inactive) | > 100 µM (inactive) | > 100 µM (inactive) | > 100 µM (inactive) | > 100 µM (inactive) | > 100 µM (inactive) | > 100 µM (inactive) | > 100 µM (inactive) | > 100 µM (inactive) | > 100 µM (inactive) | > 100 µM (inactive)
7 | CCCCOC(=O)C(=O)C(CCC(=O)c1ccc(C)cc1)C(=O)C=C(C)C (centres undefined) | > 100 µM (inactive) | > 100 µM (inactive) | > 100 µM (inactive) | > 100 µM (inactive) | > 100 µM (inactive) | > 100 µM (inactive) | > 100 µM (inactive) | > 100 µM (inactive) | > 100 µM (inactive) | > 100 µM (inactive) | > 100 µM (inactive) | > 100 µM (inactive) |  | > 100 µM (inactive) | > 100 µM (inactive) | > 100 µM (inactive) | > 100 µM (inactive) | > 100 µM (inactive) | > 100 µM (inactive) | > 100 µM (inactive)
8 | CCCCCCCCCCCCCCCC(=O)OCC(COP(=O)(O)OCCNC(=O)CCSSc1ccccn1)OC(=O)CCCCCCCCCCCCCCC (centres undefined) | > 100 µM (inactive) | > 100 µM (inactive) | > 100 µM (inactive) | > 100 µM (inactive) | > 100 µM (inactive) | > 100 µM (inactive) | > 100 µM (inactive) | > 100 µM (inactive) | > 100 µM (inactive) | > 100 µM (inactive) | > 100 µM (inactive) | > 100 µM (inactive) | > 100 µM (inactive) | > 100 µM (inactive) | > 100 µM (inactive) | > 100 µM (inactive) | > 100 µM (inactive) | > 100 µM (inactive) | > 100 µM (inactive) | > 100 µM (inactive)
9 | O=C1Cc2c(-c3ccc(Cl)cc3)cc(-c3ccccc3)nc2-c2ccccc2N1 | 6.19 µM (inactive) | 5.09 µM (inactive) | 9.16 µM (inactive) | 15.1 µM (inactive) | 21.4 µM (inactive) | 2.76 µM (inactive) | 8.87 µM (inactive) | 17 µM (inactive) | 5.15 µM (inactive) | 3.08 µM (inactive) | 2.4 µM (inactive) | 4.81 µM (inactive) | 2.46 µM (inactive) | 2.1 µM (inactive) | 10.5 µM (inactive) | 4.5 µM (inactive) | 11.6 µM (inactive) | 3.71 µM (inactive) | 4.35 µM (inactive) | 4.34 µM (inactive)
10 | Nc1ccc(-c2ccc(Nc3cc(S(=O)(=O)O)c(N)c4c3C(=O)c3ccccc3C4=O)cc2)c(S(=O)(=O)O)c1 | > 100 µM (inactive) | > 100 µM (inactive) | > 100 µM (inactive) | > 100 µM (inactive) | > 100 µM (inactive) | > 100 µM (inactive) | > 100 µM (inactive) | > 100 µM (inactive) | > 100 µM (inactive) | > 100 µM (inactive) | > 100 µM (inactive) | > 100 µM (inactive) | > 100 µM (inactive) | > 100 µM (inactive) | > 100 µM (inactive) | > 100 µM (inactive) | > 100 µM (inactive) | > 100 µM (inactive) | > 100 µM (inactive) | > 100 µM (inactive)
11 | O=C(/C=C1\C[C@H]2C=Nc3ccccc3C(=O)N2C1)NCCCNC(=O)/C=C1\C[C@H]2C=Nc3ccccc3C(=O)N2C1 | 23.3 µM (inactive) | 14.9 µM (inactive) | 16.7 µM (inactive) | 5.96 µM (inactive) | 16.4 µM (inactive) | 18.6 µM (inactive) | 18.3 µM (inactive) | 15.9 µM (inactive) | 16.1 µM (inactive) | 13.6 µM (inactive) | 20 µM (inactive) | 13.6 µM (inactive) | 12.9 µM (inactive) | 18.6 µM (inactive) | 19.8 µM (inactive) | 16.4 µM (inactive) | 14.4 µM (inactive) | 18 µM (inactive) | 16.1 µM (inactive) | 14.7 µM (inactive)
12 | CCOC(=O)C1CCC(=O)N1C(=O)c1ccccc1 (centres undefined) | > 100 µM (inactive) | > 100 µM (inactive) | > 100 µM (inactive) | > 100 µM (inactive) | > 100 µM (inactive) | > 100 µM (inactive) | > 100 µM (inactive) | > 100 µM (inactive) | > 100 µM (inactive) | > 100 µM (inactive) | > 100 µM (inactive) | > 100 µM (inactive) |  | > 100 µM (inactive) | > 100 µM (inactive) | > 100 µM (inactive) | > 100 µM (inactive) | > 100 µM (inactive) | > 100 µM (inactive) | > 100 µM (inactive)
13 | CCCCCCCCCCCCCCCC(=O)ON1C(=S)NC(C)(c2ccccc2)C1=S (centres undefined) | > 100 µM (inactive) | > 100 µM (inactive) | > 100 µM (inactive) | 38.2 µM (inactive) | > 100 µM (inactive) | > 100 µM (inactive) | > 100 µM (inactive) | > 100 µM (inactive) | > 100 µM (inactive) |  | > 100 µM (inactive) | > 100 µM (inactive) | > 100 µM (inactive) | > 100 µM (inactive) | > 100 µM (inactive) | 55.2 µM (inactive) | 30.3 µM (inactive) | > 100 µM (inactive) | > 100 µM (inactive) | > 100 µM (inactive)
14 | C/C(=N/NC(=O)c1ccncc1)c1ccc(NC(=O)C(=O)Nn2c(S)nc3ccccc3c2=O)cc1 | > 100 µM (inactive) | > 100 µM (inactive) | > 100 µM (inactive) |  | > 100 µM (inactive) | > 100 µM (inactive) | > 100 µM (inactive) | > 100 µM (inactive) | > 100 µM (inactive) | > 100 µM (inactive) | 59 µM (inactive) | > 100 µM (inactive) | > 100 µM (inactive) | > 100 µM (inactive) | 72.8 µM (inactive) | > 100 µM (inactive) | > 100 µM (inactive) | > 100 µM (inactive) | > 100 µM (inactive) | > 100 µM (inactive)
